# Data taken from patent US20020198219A1, “2-pyridinamine compositions and related methods” (priority 2000, published 2002).
# Read-outs that look alike come from different tables or passages of the source.
# Columns and labels:
# [1] = tested on: differentiated P19 neurons; assay: Differentiated P19 excitotoxicity assay (glutamate/glycine-induced death, Alamar Blue); type: cell-based, murine
# Procedure: Alamar Blue fluorescence, an indicator of cell viability, was used to determine cell viability after an NMDA-induced cytotoxic insult. […] However, since raw fluorescence counts vary from experiment to experiment, FIGS. 2A, 2B, and 2C are expressed as a percent of control.
# (§1) Glutamate toxicity dose response in the presence of a constant 1 mM glycine concentration was measured in the differentiated P19 neurons. The curve generated through the data points is the average of 6 separate dose response curves. Data points are represented as the percent of control cells ±standard error. % control=(([Glutamate]exp−[Glutamate]max)/(Controlvehicle−[Glutamate]max))×100.
# Data points are the average ±standard error of three separate experiments.
# These cells were used to measure the effects of various known kinase inhibitors (Compound Identification (ID) column in Table I) upon cytotoxicity-induced by NMDA. First, P19 cells were differentiated as described in Example 2. Then cells were exposed to 3 mM of glutamate in the presence of 1 mM glycine.
# Cell viability was determined. Compounds that prevented excitotoxicity were determined by measuring the percentage of viable cells compared to differentiated P19 cells that were not presented with a toxic insult (Table I).
# Cell viability was measured using two methods. The first method was a confocal, single-cell fluorescence imaging-based method using the live cell dye carboxy-fluorescein diacetate (CFDA). CFDA labels the cell bodies and processes of living cells. […] CFDA fluorescence was measured using a modified Attofluor Imager device (Atto Instruments, Rockville Pike, Md.). Cells were labeled with 1 uM CFDA for 15 min in media, then placed onto the stage of the Attofluor microscope. The dye was excited by light from a mercury lamp source passed through a 488 nm bandpass filter of 10 nm band width, passed through a CARV real-time confocal spinning disk module (Atto Instruments, Rockville, Md.), and then passed through a 40× oil immersion objective (Zeiss Fluar, NA=1.3). Emitted light was transmitted through a 495 nm dichroic mirror, collected to an Attofluor intensified CCD camera, and images were visualized using Attofluor RatioVision software (Atto Instruments, Rockville, Md.).
# The second method for measuring cell viability was a plate reader method. Cells plated into black 96 well plates (Packard viewplates) are loaded with 5% Alamar Blue dye (Biosource International). Alamar Blue is a dye that takes advantage of mitochondrial reductases to convert non-fluorescent resazurin to fluorescent resorufin (excitation 535 nm, emission 580 nm). Baseline fluorescence counts were read at room temperature in a Wallac plate reader immediately after addition of Alamar blue. Fluorescence counts of cell viability were taken the same way after 1 hour incubation at 37° C. Fluorescence was expressed as a percent of control, untreated cells after subtraction of background fluorescence. Live/dead cells were confirmed visually with a light microscope. […]
# CAMKII = conditions: from the literature; read-out: Potency, CAMKII; cited from earlier work
# P19 neurons [2] = assay: A23187-induced toxicity in P19 neurons (Alamar blue); type: cell-based, murine; conditions: Mus musculus, Neuron, 24 h
# Procedure: Cells were then assayed for Alamar blue fluorescence. […] Data points are represented as percent of control cells ±standard error.
# P19 neurons [3] = conditions: mouse, 1 mM
# Procedure: as §1
# [4] = tested on: differentiated P19 neurons; assay: Drug screening using differentiated P19 cell assay (neuroprotection against glutamate/glycine); type: cell-based, murine; conditions: for IC50: dose response 0.005-3 μM, 3 mM glutamate + 1 mM glycine, >1 = no maximum within highest dose (3 μM); for % neuroprotection (cell survival relative to control): screened at 1 micromolar, percentage of control cells surviving after 24 hours
# Procedure: Commercially available chemical libraries (BioFocus PLC, UK) were screened using the methods described herein. The stock concentration of the compounds was about 400 μM in DMSO. The concentration of compounds used in the primary screen was 1 μM. […] Columns 4-11 received compounds at the following final concentrations (μM): 3, 1.2, 0.48, 0.192, 0.077, 0.031, 0.012 and 0.005. Each row contained a different compound for confirmation. Only rows B-G received compounds, and rows A and H remained untreated. Data are expressed as % neuroprotection=((compound-glutamate average)/(U0126-glutamate average)×100).
# Only the 2-pyridinamines are the subject of this invention, although limited data for 4-pyrimidinamines are presented as well. “% Inh” indicates the percentage of control cells surviving after 24 hours, and represents the neuroprotective effect of the compounds screened at 1 micromolar concentration. IC50 relate to data from dose response experiments. […] ND refers to compounds not tested in dose-response experiments. […]
# NMDA receptor [5] = conditions: P19 membranes; concentration-dependent
# Procedure: MK-801 inhibition of [^3H]-MK-801 binding was assayed in P19 membranes. MK-801 concentrations are expressed as 10^−x Molar. Data points represent the mean ±standard error from eight experiments. % control=((CPM−CPMbottom)/(CPMtop−CPMbottom))×100.
# Data points represent the mean ±standard error from eight experiments.
# NMDA receptor [6] = conditions: 3 mM glutamate, 1 mM glycine; MK-801 100 μM, U0126 10 μM
# Procedure: Cells were loaded with 5 μM Fura-2-AM (Molecular Probes) for 1 hr at 37° C. They were washed once with Hank's balanced salt solution (HBSS, Gibco BRL), and assayed in HBSS buffer. Cells were placed onto the stage of a modified ATTOFLUOR™ Imager (Atto Instruments, Rockville Pike, Md.). High speed, dual excitation of fura-2 was carried out using a RATIOARC™ High-Speed Excitor (Atto Instruments). Mercury lamp light was passed through 334 nm or 380 nm bandpass filters (10 nm band width), and then passed through a 20× objective (Zeiss, Plan-Apochromat, NA=0.75) at a rate of 2.5 Hz. Emitted light was transmitted through a 400 nm dichroic mirror, and collected to an ATTOFLUORT intensified CCD camera. Ratio-images were acquired, and the average intensity of the images when excited at 334 nm and 380 nm was analyzed using ATTOFLUOR RATIOVISION™ software (Atto Instruments, Rockville, Md.).
# MK-801 was administered 24 hours prior to assay. Traces are the average ±standard error from three separate experiments for each condition. […] MK-801 inhibition of [^3H]-MK-801 binding was assayed in P19 membranes. MK-801 concentrations are expressed as 10^−x Molar. Data points represent the mean ±standard error from eight experiments. % control=((CPM−CPMbottom)/(CPMtop−CPMbottom))×100.
# Traces are the average ±standard error from four separate experiments for each condition.
Compound,% neuroprotection (cell survival relative to control) [4] [%],IC50 [4] [nM],other results
CN([C@@H](Cc1ccc(OS(=O)(=O)c2cccc3cnccc23)cc1)C(=O)N1CCN(c2ccccc2)CC1)S(=O)(=O)c1cccc2cnccc12 [KN62],–,–,"Maximal Efficacy for Neuroprotection ([1]; 3 mM glutamate + 1 mM glycine): <10%; IC50 for Neuroprotection [lower-upper 95% C.I.] ([1]; 3 mM glutamate + 1 mM glycine, mean of three separate curves): Ineffective; Ki (CAMKII): ~900 nM"
[Li] [Lithium],–,–,"Emax ([1]; Mus musculus, Neuron, 3 mM glutamate + 1 mM glycine, read-out: Maximal Efficacy for Neuroprotection): < 10%"
CNc1ccc2oc(C[C@H]3O[C@@]4(CC[C@H]3C)O[C@H]([C@H](C)C(=O)c3ccc[nH]3)[C@H](C)C[C@H]4C)nc2c1C(=O)O [A23187],–,–,"EC50 (P19 neurons [2]; read-out: EC50 for A23187 toxicity, 24 hours, in the absence of U0126): 520 nM; EC50 (P19 neurons [2]; read-out: EC50 for A23187 toxicity, 24 hours, in the presence of 10 μM U0126): 833 nM"
NCC(=O)O [Glycine],–,–,effect on basal P19 neuron viability (P19 neurons [3]): did not affect P19 neuron viability
"COc1cc(Nc2cccc(-c3ccc(C)c(C)c3)n2)cc(OC)c1OC [Cmpd 126, 2-pyridinamine, 6-(3,4-dimethylphenyl)-N-(3,4,5-trimethoxyphenyl)-]",90,–,"IC50 ([4]; Mus musculus, Neuron): 80 nM"
CCn1c2ccccc2c2cc(Nc3cccc(-c4ccc(OC)c(OC)c4)n3)ccc21 [Cmpd 129],92,340,–
COc1ccc(Nc2cccc(-c3ccco3)n2)cc1 [Cmpd 131],95,–,"IC50 ([4]; Mus musculus, Neuron): 240 nM"
COc1ccc(Nc2ccc(-c3cccc(OC(F)(F)F)c3)cn2)cc1 [Cmpd 18],74,–,–
CN(C)c1cccc(Nc2ccc(-c3ccc(N4CCN(C(=O)OC(C)(C)C)CC4)cc3)cn2)c1 [Cmpd 38],89,–,–
COc1ccc(Nc2cccc(-c3cccc(N(C)C)c3)n2)cc1 [Cmpd 105],98,400,–
"C(=C\c1ccc(Nc2ccc3c(c2)OCCO3)nc1)/c1ccccc1 [Cmpd 88, 2-pyridinamine, N-(2,3-dihydro-1,4-benzodioxin-6-yl)-5-[(E)-2-phenylethenyl]-]",85,–,"IC50 ([4]; Mus musculus, Neuron): 230 nM"
Fc1ccc(-c2ccc(Nc3ccc(N4CCOCC4)cc3)nc2)cc1Cl [Cmpd 31],83,> 1000,–
COc1ccc(Nc2cccc(-c3ccccc3)n2)cc1 [Cmpd 123],90,–,"IC50 ([4]; Mus musculus, Neuron): 650 nM"
Oc1ccc(-c2ccc(Nc3ccc(N4CCOCC4)cc3)nc2)cc1 [Cmpd 1],84,1080,–
COc1ccc(Nc2ccc(-c3ccc(OC(F)(F)F)cc3)cn2)cc1 [Cmpd 3],94,510,–
"COc1cc(Nc2cccc(-c3ccccc3)n2)cc(OC)c1OC [Cmpd 122, 2-pyridinamine, 6-phenyl-N-(3,4,5-trimethoxyphenyl)-]",84,–,"IC50 ([4]; Mus musculus, Neuron): 7 nM"
COc1cc(Nc2ccc(-c3cccc(N(C)C)c3)cn2)cc(OC)c1OC [Cmpd 74],95,–,–
"FC(F)(F)c1cc(-c2ccc(Nc3ccc(N4CCOCC4)cc3)nc2)cc(C(F)(F)F)c1 [Cmpd 21, 2-pyridinamine, 5-[3,5-bis(trifluoromethyl)phenyl]-N-[4-(4-morpholinyl)phenyl]-]",95,–,"IC50 ([4]; Mus musculus, Neuron): 210 nM"
N[C@@H](CCC(=O)O)C(=O)O [Glutamate],–,–,"reduction in Alamar blue fluorescence ([1]; 3 mM glutamate and 1 mM glycine for 24 hours): 60%; EC50 ([1]; constant 1 mM glycine, 24 hours, average of 6 curves, read-out: Glutamate toxicity EC50): 8.1 µM"
COc1cc(-c2ccc(Nc3ccc(N4CCOCC4)cc3)nc2)cc(OC)c1OC [Cmpd 24],94,1760,–
"COc1ccc(Nc2ccc(-c3ccc(N(C)C)cc3)cn2)cc1 [Cmpd 8, 2-pyridinamine, 5-[4-(dimethylamino)phenyl]-N-(4-methoxyphenyl)-]",83,–,"IC50 ([4]; Mus musculus, Neuron): 200 nM"
"COc1ccc(-c2cccc(Nc3cc(OC)c(OC)c(OC)c3)n2)cc1OC [Cmpd 124, 2-pyridinamine, 6-(3,4-dimethoxyphenyl)-N-(3,4,5-trimethoxyphenyl)-]",86,–,"IC50 ([4]; Mus musculus, Neuron): 230 nM"
COc1cc(Nc2cccc(-c3ccc(O)cc3)n2)cc(OC)c1OC [Cmpd 117],78,–,–
C[C@]12N[C@H](Cc3ccccc31)c1ccccc12 [MK-801],–,–,inhibition of [3H]-MK-801 binding (NMDA receptor [5]): 100%; Maximal protection against glutamate toxicity ([1]; 3 mM glutamate and 1 mM glycine-induced P19 neuron death): close to control levels; effect on glutamate/glycine-induced intracellular calcium response (NMDA receptor [6]): significantly inhibited
Cc1ccc(-c2ccc(Nc3cccc(N(C)C)c3)nc2)cc1C [Cmpd 87],84,> 1000,–
CCCCCOc1ccc(Nc2ccc(-c3cccc(N)c3)cn2)cc1 [Cmpd 36],98,> 1000,–
COc1ccc(Nc2ccc(-c3ccccc3OC)cn2)cc1 [Cmpd 35],82,> 1000,–
COc1cc(Nc2ccc(-c3ccc(C)c(C)c3)cn2)cc(OC)c1OC [Cmpd 84],85,490,–
CCCCCOc1ccc(Nc2ccc(-c3cccnc3)cn2)cc1 [Cmpd 37],84,–,–
Cc1ccc(-c2ccc(Nc3ccc4c(c3)OCCO4)nc2)cc1C [Cmpd 85],86,> 1000,–
